# In PubChem BioAssay AID1963831 (Molecular Pharmacology Branch, DTP, NCI, 2024):
# “And” between values parts separate entries of the source, which are not always exact repeats. Equal values may be shown once.
# Tested on: 889142-216-R-J1-PDC complex spheroid viability
# Test: Anticancer human tumor 889142-216-R-J1-PDC patient-derived bladder carcinoma cell line growth inhibition [POLQ]
# Conditions: for viability, T/C: stronger effect = lower value
# Experimental: Multicellular complex tumor spheroid response to Polymerase (POL) inhibitors (novobiocin, ART-558, RP6685) in combination with a variety of drugs and investigational agents in selected tumor cell lines
# The POL inhibitors (novobiocin, ART-558, and RP6685) were evaluated both individually and in combination with standard of care and investigational anticancer small molecules within a complex spheroid model of solid tumors. . Complex spheroids include a stromal component modeled by human endothelial cells (HUVEC) and fibroblasts modeled by human mesenchymal stem cells (MSCs). The concentration ranges selected for each drug and investigational agent were based upon clinically achievable concentrations if the clinical Cmax of the agent was known.
# Compounds. The drugs and investigational agents: novobiocin (NSC847541), ART-558 (NSC835418), RP-6685 (NSC848927), peposertib (NSC802822), ceralasertib (NSC780249), elimusertib (NSC800525), camonsertib (NSC841442), AZD-1390 (NSC803789), olaparib (NSC753686), talazoparib (NSC767125), rucaparib (NSC756644), sotorasib (NSC818433), MRTX-1133 (NSC836407), SN-38 (NSC673596), topotecan (NSC609699), epotoside (NSC141540), doxorubicin (NSC123127), gemcitabine (NSC613327), 5-fluorouracil (NSC19893), paclitaxel (NSC125973), vemurafenib (NSC761431), MSA-2 (NSC828583), SN-011 (NSC837082), adavosertib (NSC754352), prexasertib (NSC758257), carboplatin (NSC241240) and oxaliplatin (NSC266046), were obtained from the National Cancer Institute (NCI) Developmental Therapeutics Program Chemical Repository (21). The FDA-approved anticancer drug set is available from the Developmental Therapeutics Program at https://dtp.cancer.gov/organization/dscb/obtaining/. […] The stock solutions were prepared in dimethyl sulfoxide (DMSO, Sigma-Aldrich, St. Louis, MO, cat. D2650), except for the platinum compounds which were prepared in saline (Quality Biological, Gaithersburg, MD, cat. 114-055-101), at 800-fold the tested concentration and stored at -70 degrees C prior to their use. All drugs and investigational agents were tested over a range starting from a high concentration at or near the clinical Cmax and decreasing in half-log increments. If the clinical Cmax for an agent had not been determined, the highest concentration tested was 10 microM, except for SN-38, which was tested at a high concentration of 1 microM.
# Cell Culture. All cells were maintained in an incubator at 37 degrees C and 5% CO2 with 95% humidity. The PDC lines were cultured according to standard operating procedures established by the NCI PDMR (https://pdmr.cancer.gov). Table 3 of the manuscript, lists the cell lines along with the number of the three cell types plated to form the mct-spheroids and media for tumor cell growth. After thawing, all PDC lines, except 997537-175-T-J1-PDC and 415267-285-R-J2-PDC, were cultured in Matrigel-coated flasks prepared with a working solution of 1X Ham's F-12 nutrient mix, without supplementation (Thermo Fisher Scientific, cat. 11765054), 100 U/mL penicillin-streptomycin (Thermo Fisher Scientific, cat. 15140122), and 2.5% Matrigel (Corning Inc., Corning, NY, cat. 354248) for the first three passages. The two PDC lines 997537-175-T-J1-PDC and 415267-285-R-J2-PDC were cultured on uncoated flasks. The 857933-349-R-J2-PDC line was cultured in 6C/Colon 1B media containing advanced DMEM/F-12 (Thermo Fisher Scientific, cat. 12634028), 10 mM HEPES (Thermo Fisher Scientific, cat. 15630080), 1X GlutaMAX supplement (Thermo Fisher Scientific, cat. 35050061), 0.1 mg/mL primocin (InvivoGen, San Diego, CA, cat. ant-pm-2), 10% defined fetal bovine serum, heat inactivated (HyClone Laboratories Inc., Logan, UT, cat. SH30070.03HI), 50% L-WRN conditioned media (ATCC, cat. CRL-3276), 1.25 mM N-Acetyl-L-cysteine (Sigma-Aldrich, cat. A9165), 10 mM nicotinamide (Sigma-Aldrich, cat. N0636), 1X B-27 supplement (Thermo Fisher Scientific, cat. 17504044), 1X N-2 supplement (Thermo Fisher Scientific, cat. […]
# [1] = curve of first compound, second compound 0.0316 µM
# [2] = curve of first compound, second compound 0.1 µM
# [3] = curve of first compound, second compound 0.316 µM
# [4] = curve of first compound, second compound 1 µM
# [5] = curve of first compound, second compound 3.16 µM
# [6] = curve of first compound, second compound 10 µM
# [7] = second compound 0.0316 µM, first compound 0.0316 µM
# [8] = second compound 0.0316 µM, first compound 0.1 µM
# [9] = second compound 0.0316 µM, first compound 0.316 µM
# [10] = second compound 0.0316 µM, first compound 1 µM
# [11] = second compound 0.0316 µM, first compound 3.16 µM
# [12] = second compound 0.0316 µM, first compound 10 µM
# [13] = second compound 0.1 µM, first compound 0.0316 µM
# [14] = second compound 0.1 µM, first compound 0.1 µM
# [15] = second compound 0.1 µM, first compound 0.316 µM
# [16] = second compound 0.1 µM, first compound 1 µM
# [17] = second compound 0.1 µM, first compound 3.16 µM
# [18] = second compound 0.1 µM, first compound 10 µM
# [19] = second compound 0.316 µM, first compound 0.0316 µM
# [20] = second compound 0.316 µM, first compound 0.1 µM
# [21] = second compound 0.316 µM, first compound 0.316 µM
# [22] = second compound 0.316 µM, first compound 1 µM
# [23] = second compound 0.316 µM, first compound 3.16 µM
# [24] = second compound 0.316 µM, first compound 10 µM
# [25] = second compound 1 µM, first compound 0.0316 µM
# [26] = second compound 1 µM, first compound 0.1 µM
# [27] = second compound 1 µM, first compound 0.316 µM
# [28] = second compound 1 µM, first compound 1 µM
# [29] = second compound 1 µM, first compound 3.16 µM
# [30] = second compound 1 µM, first compound 10 µM
# [31] = second compound 3.16 µM, first compound 0.0316 µM
# [32] = second compound 3.16 µM, first compound 0.1 µM
# [33] = second compound 3.16 µM, first compound 0.316 µM
# [34] = second compound 3.16 µM, first compound 1 µM
# [35] = second compound 3.16 µM, first compound 3.16 µM
# [36] = second compound 3.16 µM, first compound 10 µM
# [37] = second compound 10 µM, first compound 0.0316 µM
# [38] = second compound 10 µM, first compound 0.1 µM
# [39] = second compound 10 µM, first compound 0.316 µM
# [40] = second compound 10 µM, first compound 1 µM
# [41] = second compound 10 µM, first compound 3.16 µM
# [42] = second compound 10 µM, first compound 10 µM
# 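Also: spheroids exposed to compounds for seven days.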
# 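For viability, T/C in this document: 100% = DMSO vehicle control viability.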
smiles,measurement,setting,value
CC(C)n1c(=O)n(C)c2cnc3cc(F)c(-c4ccc(OCCCN5CCCCC5)nc4)cc3c21 + Nc1ccc(C#CCN(C(=O)Cc2ncc(C(F)(F)F)cc2C(F)(F)F)c2ccc(F)cc2)nn1,IC50,[1],> 10 µM
same,IC50,[2],> 10 µM
same,IC50,[3],> 10 µM
same,IC50,[4],> 10 µM
same,IC50,[5],> 10 µM
same,IC50,[6],> 10 µM
same,"viability, T/C",[7],96.5%
same,"viability, T/C",[8],113%
same,"viability, T/C",[9],119%
same,"viability, T/C",[10],79.2%
same,"viability, T/C",[11],65.5%
same,"viability, T/C",[12],95.2%
same,"viability, T/C",[13],122%
same,"viability, T/C",[14],89.3%
same,"viability, T/C",[15],70.7%
same,"viability, T/C",[16],84%
same,"viability, T/C",[17],62%
same,"viability, T/C",[18],76.1%
same,"viability, T/C",[19],95.8%
same,"viability, T/C",[20],85.1%
same,"viability, T/C",[21],79.9%
same,"viability, T/C",[22],80.7%
same,"viability, T/C",[23],56.4%
same,"viability, T/C",[24],95.8%
same,"viability, T/C",[25],91.4%
same,"viability, T/C",[26],80.3%
same,"viability, T/C",[27],104%
same,"viability, T/C",[28],88.7%
same,"viability, T/C",[29],57.3%
same,"viability, T/C",[30],97.8%
same,"viability, T/C",[31],85.6%
same,"viability, T/C",[32],72.8%
same,"viability, T/C",[33],80.5%
same,"viability, T/C",[34],88%
same,"viability, T/C",[35],70.1%
same,"viability, T/C",[36],113%
same,"viability, T/C",[37],79.3%
same,"viability, T/C",[38],97.8%
same,"viability, T/C",[39],88.6%
same,"viability, T/C",[40],79.7%
same,"viability, T/C",[41],59.7%
same,"viability, T/C",[42],97.2%
CCc1cc2c(N3CCc4c(cc(Cn5ccnc5)cc4-c4cn(C)nc4C(F)(F)F)C3=O)ccnc2c(OC)n1,"viability, T/C",compound 0.0316 µM,127% and 103% and 138%
same,"viability, T/C",compound 0.1 µM,115% and 101% and 105%
same,"viability, T/C",compound 0.316 µM,123% and 106% (2×)
same,"viability, T/C",compound 1 µM,116% and 126% and 105%
same,"viability, T/C",compound 3.16 µM,116% and 111% and 93.8%
same,"viability, T/C",compound 10 µM,83.1% and 86.1% and 71.5%
same,IC50,curve of compound,> 10 µM
COc1cccc2c1C(=O)c1c(O)c3c(c(O)c1C2=O)CC(O)(C(=O)CO)CC3OC1CC(N)C(O)C(C)O1 (stereo not given) + Nc1ccc(C#CCN(C(=O)Cc2ncc(C(F)(F)F)cc2C(F)(F)F)c2ccc(F)cc2)nn1,IC50,[1],0.338 µM
same,IC50,[2],0.339 µM
same,IC50,[3],0.254 µM
same,IC50,[4],0.45 µM
same,IC50,[5],0.287 µM
same,IC50,[6],0.318 µM
same,"viability, T/C",[7],55.1%
same,"viability, T/C",[8],78.9%
same,"viability, T/C",[9],52.2%
same,"viability, T/C",[10],6.13%
same,"viability, T/C",[11],0.74%
same,"viability, T/C",[12],1.95%
same,"viability, T/C",[13],71.8%
same,"viability, T/C",[14],79.8%
same,"viability, T/C",[15],52%
same,"viability, T/C",[16],9.08%
same,"viability, T/C",[17],1.08%
same,"viability, T/C",[18],1.72%
same,"viability, T/C",[19],66.6%
same,"viability, T/C",[20],76.2%
same,"viability, T/C",[21],44.1%
same,"viability, T/C",[22],8.99%
same,"viability, T/C",[23],1.03%
same,"viability, T/C",[24],1.55%
same,"viability, T/C",[25],77.8%
same,"viability, T/C",[26],75.3%
same,"viability, T/C",[27],68.6%
same,"viability, T/C",[28],7.94%
same,"viability, T/C",[29],1.14%
same,"viability, T/C",[30],2.34%
same,"viability, T/C",[31],66%
same,"viability, T/C",[32],77.7%
same,"viability, T/C",[33],47.9%
same,"viability, T/C",[34],4.28%
same,"viability, T/C",[35],0.84%
same,"viability, T/C",[36],1.58%
same,"viability, T/C",[37],71.5%
same,"viability, T/C",[38],72.3%
same,"viability, T/C",[39],50.2%
same,"viability, T/C",[40],3.75%
same,"viability, T/C",[41],1.07%
same,"viability, T/C",[42],1.08%
CC(C)n1c(=O)n(C)c2cnc3cc(F)c(-c4ccc(OCCCN5CCCCC5)nc4)cc3c21,"viability, T/C",compound 0.0316 µM,78.6% and 82.9% and 98.3%
same,"viability, T/C",compound 0.1 µM,101% and 92.7% and 85.2%
same,"viability, T/C",compound 0.316 µM,67.3% and 87% and 77.9%
same,"viability, T/C",compound 1 µM,63.5% and 85.9% and 71.9%
same,"viability, T/C",compound 3.16 µM,56.2% and 77.5% and 64.2%
same,"viability, T/C",compound 10 µM,17.9% and 67.2% and 43.8%
same,IC50,curve of compound,3.19 µM and > 10 µM and 7.64 µM
CCc1cc2c(N3CCc4c(cc(Cn5ccnc5)cc4-c4cn(C)nc4C(F)(F)F)C3=O)cc(C)nc2c(OC)n1,"viability, T/C",compound 0.0316 µM,103% and 102% and 111%
same,"viability, T/C",compound 0.1 µM,116% and 114% and 108%
same,"viability, T/C",compound 0.316 µM,123% and 119% (2×)
same,"viability, T/C",compound 1 µM,132% and 112% and 96.6%
same,"viability, T/C",compound 3.16 µM,118% and 106% and 84.9%
same,"viability, T/C",compound 10 µM,84.3% and 82.2% and 71.1%
same,IC50,curve of compound,> 10 µM
